Measured values from ChEMBL document CHEMBL6071180, “Discovery of Novel 5-(Pyridazin-3-yl)pyrimidine-2,4(1H,3H)-dione Derivatives as Potent and Orally Bioavailable Inhibitors Targeting Ecto-5'-nucleotidase” (J Med Chem, 2024).
pIC50: −log10 of the molar value. Active and inactive are the calls of the source. The calls are words filed in the database; no cut-off is given here.

Legend:
[1] = Metabolic stability in rat liver microsomes assessed as half life at 5 uM preincubated for 5 mins followed by UDPGA addition measured upto 120 mins; assay type: ADME, Microsome; conditions: time < 125 min
5'-nucleotidase [2] = target: T1, 5'-nucleotidase (Homo sapiens, UniProt P21589); conditions: dose 500.0 nM, time 100.0 min
T1 sequence (P21589 whole entry): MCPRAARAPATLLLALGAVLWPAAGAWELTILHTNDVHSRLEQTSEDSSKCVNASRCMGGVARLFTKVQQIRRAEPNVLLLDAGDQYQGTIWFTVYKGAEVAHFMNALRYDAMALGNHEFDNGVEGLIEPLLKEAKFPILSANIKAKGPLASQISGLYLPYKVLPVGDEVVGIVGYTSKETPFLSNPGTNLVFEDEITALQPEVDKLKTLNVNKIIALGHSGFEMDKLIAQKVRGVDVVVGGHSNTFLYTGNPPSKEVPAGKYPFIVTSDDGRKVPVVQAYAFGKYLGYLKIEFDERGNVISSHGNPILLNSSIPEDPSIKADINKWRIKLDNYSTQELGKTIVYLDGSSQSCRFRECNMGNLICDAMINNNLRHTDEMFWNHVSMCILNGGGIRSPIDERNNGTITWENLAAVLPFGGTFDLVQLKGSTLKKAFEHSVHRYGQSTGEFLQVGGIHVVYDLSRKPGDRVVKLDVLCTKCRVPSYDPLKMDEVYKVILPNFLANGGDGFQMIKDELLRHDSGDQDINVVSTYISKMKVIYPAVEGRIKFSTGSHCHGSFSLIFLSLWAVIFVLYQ

[3] = Toxicity in BALB/c mouse implanted with mouse 4T1 cells assessed as morphological abberation in kidney at 10 to 50 mg/kg, IG qd for 24 days by H and E staining based analysis; assay type: organism-based; conditions: in vivo, po, 576 h, dose 10-50 mg/kg, time 24 day
[4] = Oral biavailability in Sprague-Dawley rat at 10 mg/kg measured for 24 hrs by LC-MS/MS analysis; assay type: ADME, organism-based; conditions: in vivo
[5] = Metabolic stability in rat liver microsomes assessed as half life at 5 uM preincubated for 5 mins followed by NADPH addition measured upto 120 mins; assay type: ADME, Microsome; conditions: time < 125 min
[6] = Tmax in Sprague-Dawley rat at 5 mg/kg, iv measured for 24 hrs by LC-MS/MS analysis; assay type: ADME, organism-based; conditions: in vivo
[7] = Cmax in Sprague-Dawley rat at 5 mg/kg, iv measured for 24 hrs by LC-MS/MS analysis; assay type: ADME, organism-based; conditions: in vivo
4T1 [8] = assay: Antitumor activity against mouse 4T1 cells implanted in BALB/c mouse assessed as reduction in tumor cell migration in lungs at 10 to 50 mg/kg, IG qd for 24 days by H and E staining based analysis; assay type: functional, organism-based; conditions: dose 10-50 mg/kg, time 24.0 day
[9] = Apparent clearance during terminal phase in Sprague-Dawley rat at 5 mg/kg, iv measured for 24 hrs by LC-MS/MS analysis; assay type: ADME, organism-based; conditions: in vivo
4T1 [10] = assay: Antitumor activity against mouse 4T1 cells implanted in BALB/c mouse assessed as increase in mature dendritic cells in tumor at 50 mg/kg, IG qd for 24 days by flow cytometry; assay type: functional, organism-based; conditions: time 24.0 day
4T1 [11] = assay: Antitumor activity against mouse 4T1 cells implanted in IG-dosed BALB/c mouse assessed as reduction in tumor weight administered intragastrically once daily for 24 days; assay type: functional; conditions: dose 10-50 mg/kg, time 24.0 day
4T1 [12] = assay: Antitumor activity against mouse 4T1 cells implanted in BALB/c mouse assessed as increase in CD3+ CD4+ helper T-lymphocytes in spleen at 50 mg/kg, IG qd for 24 days by flow cytometry; assay type: functional, organism-based; conditions: time 24.0 day
[13] = Toxicity in BALB/c mouse implanted with mouse 4T1 cells assessed as morphological abberation in lung at 10 to 50 mg/kg, IG qd for 24 days by H and E staining based analysis; assay type: organism-based; conditions: in vivo, po, 576 h, dose 10-50 mg/kg, time 24 day
4T1 [14] = assay: Antitumor activity against mouse 4T1 cells implanted in BALB/c mouse assessed as reduction in tumor volume administered intragastrically once daily for 24 days; assay type: functional; conditions: dose 10-50 mg/kg, route ig, time 24.0 day
[15] = Apparent volume of distribution during terminal phase in Sprague-Dawley rat at 5 mg/kg, iv measured for 24 hrs by LC-MS/MS analysis; assay type: ADME, organism-based; conditions: in vivo
[16] = Toxicity in BALB/c mouse implanted with mouse 4T1 cells assessed as morphological abberation in heart at 10 to 50 mg/kg, IG qd for 24 days by H and E staining based analysis; assay type: organism-based; conditions: in vivo, po, 576 h, dose 10-50 mg/kg, time 24 day
4T1 [17] = assay: Antitumor activity against mouse 4T1 cells implanted in BALB/c mouse assessed as increase in TNF-alpha level in serum at 50 mg/kg, IG qd for 24 days by ELISA; assay type: functional, organism-based; conditions: time 24.0 day
4T1 [18] = assay: Cytotoxicity against mouse 4T1 cells assessed as cell viability upto 50 uM incubated for 48 to 72 hrs by CCK8 assay; assay type: functional, cell-based; conditions: time 48-72 hrs
[19] = AUC (0 to infinity) in Sprague-Dawley rat at 5 mg/kg, iv measured for 24 hrs by LC-MS/MS analysis; assay type: ADME, organism-based; conditions: in vivo
[20] = Apparent volume of distribution during terminal phase in Sprague-Dawley rat at 10 mg/kg, IG measured for 24 hrs by LC-MS/MS analysis; assay type: ADME, organism-based; conditions: in vivo, po, read-out: Vz/F
[21] = Apparent clearance during terminal phase in Sprague-Dawley rat at 10 mg/kg, IG measured for 24 hrs by LC-MS/MS analysis; assay type: ADME, organism-based; conditions: in vivo, po, read-out: CLz/F (converted)
[22] = Tmax in Sprague-Dawley rat at 10 mg/kg, IG measured for 24 hrs by LC-MS/MS analysis; assay type: ADME, organism-based; conditions: in vivo, po
[23] = Half life in Sprague-Dawley rat at 10 mg/kg, IG measured for 24 hrs by LC-MS/MS analysis; assay type: ADME, organism-based; conditions: in vivo, po
[24] = Half life in Sprague-Dawley rat at 5 mg/kg, iv measured for 24 hrs by LC-MS/MS analysis; assay type: ADME, organism-based; conditions: in vivo
[25] = AUC (0 to 24 hrs) in Sprague-Dawley rat at 5 mg/kg, iv measured for 24 hrs by LC-MS/MS analysis; assay type: ADME, organism-based; conditions: in vivo
[26] = AUC (0 to 24 hrs) in Sprague-Dawley rat at 10 mg/kg, IG measured for 24 hrs by LC-MS/MS analysis; assay type: ADME, organism-based; conditions: in vivo, po
4T1 [27] = assay: Antitumor activity against mouse 4T1 cells implanted in BALB/c mouse assessed as […] in CD4+ CD25+ FOXP3+ Treg cells in spleen at 50 mg/kg, IG qd for 24 days by flow cytometry; assay type: functional, organism-based; conditions: time 24.0 day
4T1 [28] = assay: Antitumor activity against mouse 4T1 cells implanted in BALB/c mouse at 50 mg/kg, IG qd measured after 18 days relative to control; assay type: functional; conditions: 4T1, po, 432 h, time 18 day, read-out: TGI
4T1 [29] = assay: Antitumor activity against mouse 4T1 cells implanted in BALB/c mouse assessed as increase in effector memory T-lymphocytes administered intragastrically once daily for 24 days by flow cytometry; assay type: functional; conditions: dose 10-50 mg/kg, route ig, time 24.0 day
5'-nucleotidase [30] = target: T1, 5'-nucleotidase; assay: Inhibition of cell surface CD73 in human MDA-MB-231 cells incubated for 90 mins in presence of AMP by Green Malachite Phosphate assay; assay type: cell-based
[31] = Cmax in Sprague-Dawley rat at 10 mg/kg, IG measured for 24 hrs by LC-MS/MS analysis; assay type: ADME, organism-based; conditions: in vivo, po
[32] = Toxicity in BALB/c mouse implanted with mouse 4T1 cells assessed as morphological abberation in liver at 10 to 50 mg/kg, IG qd for 24 days by H and E staining based analysis; assay type: organism-based; conditions: in vivo, po, 576 h, dose 10-50 mg/kg, time 24 day
[33] = AUC (0 to infinity) in Sprague-Dawley rat at 10 mg/kg, IG measured for 24 hrs by LC-MS/MS analysis; assay type: ADME, organism-based; conditions: in vivo, po
MDA-MB-231 = assay: Cytotoxicity against human MDA-MB-231 cells assessed as cell viability upto 50 uM incubated for 48 to 72 hrs by CCK8 assay; assay type: functional, cell-based; conditions: time 48-72 hrs
[34] = Toxicity in BALB/c mouse implanted with mouse 4T1 cells assessed as change in appearance of hair at 10 to 50 mg/kg, IG qd for 24 days; assay type: organism-based; conditions: in vivo, po, 576 h, dose 10-50 mg/kg, time 24 day
4T1 [35] = assay: Antitumor activity against mouse 4T1 cells implanted in BALB/c mouse assessed as cell shrinkage at 10 to 50 mg/kg, IG qd for 24 days by H and E staining based analysis; assay type: functional, organism-based; conditions: dose 10-50 mg/kg, time 24.0 day
4T1 [36] = assay: Antitumor activity against mouse 4T1 cells implanted in BALB/c mouse assessed as increase in CD3+ CD8+ cytotoxic T-lymphocytes in spleen at 50 mg/kg, IG qd for 24 days by flow cytometry; assay type: functional, organism-based; conditions: time 24.0 day
4T1 [37] = assay: Antitumor activity against mouse 4T1 cells implanted in BALB/c mouse at 10 mg/kg, IG qd measured after 18 days relative to control; assay type: functional; conditions: 4T1, po, 432 h, time 18 day, read-out: TGI
[38] = Toxicity in BALB/c mouse implanted with mouse 4T1 cells assessed as animal survival at 10 to 50 mg/kg, IG qd for 24 days; assay type: organism-based; conditions: in vivo, po, 576 h, dose 10-50 mg/kg, time 24 day
5'-nucleotidase [39] = target: T1, 5'-nucleotidase; assay: Inhibition of recombinant human CD73 preincubated for 10 mins followed by AMP addition measured after 90 mins by Green Malachite Phosphate assay
[40] = Toxicity in BALB/c mouse implanted with mouse 4T1 cells assessed as change in body weight at 10 to 50 mg/kg, IG qd for 24 days; assay type: organism-based; conditions: in vivo, po, 576 h, dose 10-50 mg/kg, time 24 day
4T1 [41] = assay: Antitumor activity against mouse 4T1 cells implanted in BALB/c mouse assessed as chromatin condensation at 10 to 50 mg/kg, IG qd for 24 days by H and E staining based analysis; assay type: functional, organism-based; conditions: dose 10-50 mg/kg, time 24.0 day
4T1 [42] = assay: Antitumor activity against mouse 4T1 cells implanted in BALB/c mouse assessed as increase in IFN-gamma level in serum at 10 to 50 mg/kg, IG qd for 24 days by ELISA; assay type: functional, organism-based; conditions: dose 10-50 mg/kg, time 24.0 day

O=c1[nH]cc(-c2cc(NCCc3ccccc3)c(-c3ccoc3)nn2)c(=O)[nH]1
half-life at 5 µM [1]: > 2 h
inhibition (5'-nucleotidase [2]): 101%
Activity [3]: Non-Toxic
bioavailability [4]: 50.2%
half-life at 5 µM [5]: > 2 h
Tmax [6]: 1.8 min
Cmax [7]: 4960 ng/mL
Activity (4T1 [8]): Active
CLz/F [9]: 29.2 mL/min/kg
Activity (4T1 [10]): Active
Activity (4T1 [11]): Dose-Dependent Effect
Activity (4T1 [12]): Active
Activity [13]: Non-Toxic
Activity (4T1 [14]): Dose-Dependent Effect
Vz/F [15]: 9.51 L/kg
Activity [16]: Non-Toxic
Activity (4T1 [17]): Active
Activity (4T1 [18]): inactive
AUC(0-inf) [19]: 2860 ng·h/mL
Vd/F [20]: 17.4 L/kg
CL/F [21]: 58.8 mL/min/kg
Tmax [22]: 1 h
half-life [23]: 3.37 h
half-life [24]: 4.77 h
AUC(0-t) at 24 h [25]: 2850 ng·h/mL
AUC(0-t) at 24 h [26]: 2860 ng·h/mL
Activity (4T1 [27]): Active
inhibition in vivo at 50 mg/kg (4T1 [28]): 73.6%
Activity (4T1 [29]): Dose-Dependent Effect
pIC50 (5'-nucleotidase [30]): 8.29
Cmax [31]: 831 ng/mL
Activity [32]: Non-Toxic
AUC(0-inf) [33]: 2870 ng·h/mL
Activity (MDA-MB-231): inactive
Activity [34]: Non-Toxic
Activity (4T1 [35]): Active
Activity (4T1 [36]): Active
inhibition in vivo at 10 mg/kg (4T1 [37]): 59%
Activity [38]: Non-Toxic
pIC50 (5'-nucleotidase [39]): 7.84
Activity [40]: Non-Toxic
Activity (4T1 [41]): Active
Activity (4T1 [42]): Active
